Assay [1] relates to MATIN. In words: greenhouse test, pre-emergence treatment. It is filed as in vivo, Matricaria inodora. Conditions: 2.0 kg/ha, scale 0 to 100. An excerpt:
(§1) The culture containers used were plastic flowerpots containing loamy sand with approximately 5.8% of humus as the substrate. The seeds of the test plants were sown separately for each species.
(§2) For the pre-emergence treatment, the active compounds, which had been suspended or emulsified in water, were applied directly after sowing by means of finely distributing nozzles. The containers were irrigated gently to promote germination and growth and subsequently covered with transparent plastic hoods until the plants had rooted. This cover caused uniform germination of the test plants, unless this has been impaired by the active compounds.
(§3) Depending on the species, the plants were kept at 10-25° C. or 20-35° C. The test period extended over 1 to 4 weeks. During this time, the plants were tended, and their response to the individual treatments was evaluated.
(§4) Evaluation was carried out using a scale from 0 to 100. 100 means no emergence of the plants, or complete destruction of at least the aerial moieties, and 0 means no damage, or normal course of growth. A good herbicidal activity is given at values of at least 70 and a very good herbicidal activity is given at values of at least 85.

Another assay has as its system AGSST. In words: greenhouse test, post-emergence treatment. It counts as in vivo, Agrostis alba. Conditions: 2.0 kg/ha, scale 0 to 100.
Text: as §1
(§5) For the post-emergence treatment, the test plants were first grown to a height of 1.5 to 15 cm, depending on the plant habit, and then treated with the active compounds which had been suspended or emulsified in water. For this purpose, the test plants were either sown directly and grown in the same containers, or they were first grown separately as seedlings and transplanted into the test containers a few days prior to treatment.
as §3, §4

In assay [2] the test system is MATIN. In words: greenhouse test, post-emergence treatment. Conditions: 2.0 kg/ha, scale 0 to 100. It is filed as in vivo, Matricaria inodora.
Text: as §1, §5, §3, §4

In a further assay the test system is SETVI. In words: greenhouse test, pre-emergence treatment. It is filed as in vivo, Setaria viridis. Conditions: 1.0 kg/ha, scale 0 to 100.
Text: as §1, §2, §3, §4

The next assay relates to CHEAL. In words: greenhouse test, post-emergence treatment. It is filed as in vivo, Chenopodium album. The note with it: 1.0 kg/ha, scale 0 to 100.
Text: as §1, §5, §3, §4

The next assay relates to ECHCG. In words: greenhouse test, post-emergence treatment. It counts as in vivo, Echinochloa crus-galli. Conditions: 1.0 kg/ha, scale 0 to 100.
Text: as §1, §5, §3, §4

Another assay relates to GALAP. In words: greenhouse test, post-emergence treatment. Conditions: 0.5 kg/ha, scale 0 to 100. It is filed as in vivo, Galium aparine.
Text: as §1, §5, §3, §4

The subject of another assay is AMARE. In words: greenhouse test, post-emergence treatment. It counts as in vivo, Amaranthus retroflexus. Conditions: 0.5 kg/ha, scale 0 to 100.
Text: as §1, §5, §3, §4

Another assay deals with APESV. In words: greenhouse test, pre-emergence treatment. It counts as in vivo, Apera spica-venti. The procedure:
as §1
(§6) The containers were irrigated gently to promote germination and growth and subsequently covered with transparent plastic hoods until the plants had rooted.
as §3, §4

Another assay relates to SETFA. In words: greenhouse test, pre-emergence treatment. It is filed as in vivo, Setaria faberi. Conditions: comparative experiment, 0.5 kg/ha. The protocol: as §1, §6, §3, §4
Setting [3] is: comparative experiment, 0.5 kg/ha.

On to `CN1C(=O)C(C)(Cc2ccccc2)N(C)C(=O)C1=Cc1occc1Br` (racemic) [I-11], for which the herbicidal activity result in the assay on MATIN [1], in the assay on AGSST and with MATIN [2] was “very good (a very good herbicidal activity is given at values of at least 85)” each time.

Turning to `Cc1nn(C)c(Cl)c1C=C1C(=O)N(C)C(C)(Cc2ccccc2)C(=O)N1C` (racemic) [I-15], the herbicidal activity entry with SETVI and in the assay on CHEAL was “very good (a very good herbicidal activity is given at values of at least 85)” each time.

Take `CN1C(=O)C(=Cc2cn(C)c3cccc([N+](=O)[O-])c23)NC(=O)C1(C)Cc1ccccc1` (racemic) [I-18]: the herbicidal activity result in the assay on ECHCG is “good (A good herbicidal activity is given at values of at least 70)”.

Take `Cc1ncn(C)c1C=C1C(=O)N(C)C(C)(Cc2ccccc2)C(=O)N1C` (racemic) [I-38]: the herbicidal activity result in the assay with GALAP is “very good (a very good herbicidal activity is given at values of at least 85)”; with AMARE, “good (A good herbicidal activity is given at values of at least 70)”.

On to `CN1C(=O)C(C)(Cc2ccccc2)N(C)C(=O)C1=Cc1cc(Cl)sc1Cl` (racemic) [I-56], for which the herbicidal activity in the assay on APESV (setting [3]) and in the assay with SETFA was 80% throughout.

With `CN1C(=O)C(C)(Cc2ccccc2)N(C)C(=O)C1=Cc1cnn2cccnc12` (racemic) [I-61], the herbicidal activity result in the assay with APESV (1.0 kg/ha, scale 0 to 100) is “good (A good herbicidal activity is given at values of at least 70)”.

Consider `CN1C(=O)C(Cc2cscc2C(F)(F)F)N(C)C(=O)C1Cc1ccccc1` (centres unmarked) [Ex. I.236.1, reference compound], for which the herbicidal activity with APESV (setting [3]) was 20%.

As to `CN1C(=O)C(C)(Cc2ccccc2)N(C)C(=O)C1Cc1cscc1C(F)(F)F` (centres unmarked) [II-21], the herbicidal activity with APESV (setting [3]) amounted to 98%; with SETFA, 95%.

For the origin of these results see patent US20110207609A1, “Piperazine Compounds With Herbicidal Effect” (BASF SE, priority 2008, published 2011).
